According to US7129213B2, “Tripeptides and tripeptide derivatives for the treatment of neurodegenerative diseases” (Neurotell AG, priority 2002, dated 2006):
Where a name gives a salt, the structure may show the parent alone. Where a SMILES comes first, the peptide text is derived from it.

What was measured:
[1] = tested on: type II glucocorticoid receptors in the hippocampus; test: Dexamethasone model, determination of the corticoid receptors; format: in vivo, rat; details: rats pretreated by dexamethasone, 20 mg/kg/day 10 days
Procedure: (§1) 20 rats were orally administered 50 mg/kg/day of dexamethasone over a period of 21 days. At Day 19, the animals were chloralized (360 mg/kg), and a catheter was placed into the carotid artery as described above. At Day 21, the animals were randomly divided into two groups: • one group of 10 rats received an intracarotid injection of 1 ml/kg/day of normal saline for a period of 10 days (controls). • one group of 10 rats received 20 mg/kg/day of HCl-Gly-Phe-PrONH2 dissolved in normal saline for a period of 10 days. The injections were given at 9.00 a.m.
After the last learning session at 11.00 a.m., the rats were sacrificed by means of decapitation, and the hippocampi were quickly removed and put on a plate cooled to 0° C. The number of glucocorticoid receptors was determined by a binding method using a labeled corticoid and a specific inhibitor to the binding of the corticoid to the receptor (here a total agonist). The protein content was measured by Lowry's method.
The hippocampi of each rat were homogenized in 2 ml of sodium EDTA Glycerol molybdate buffer. […] An aliquot of the supernatant was diluted in distilled water, and the protein content was measured by Lowry's method. […]
After one night of incubation at 4° C., charcoal/dextran was added to absorb […] dexamethasone. After centrifugation, the radioactivity of the supernatant was measured by liquid scintillation. […]

[2] = tested on: rats pretreated with orally administered dexamethasone; test: Dexamethasone model, sound avoidance conditioning; format: in vivo, rat
Procedure: as §1
(§2) During the last five days of treatment, the rats were placed under the common learning conditions of the three models between 10.00 a.m. and 11.00 a.m. (see below).
(§3) During the last five days of treatment, at 10.00 a.m. (1 hour after the administration of HCl-Gly-Phe-ProNH2), the animals were placed into a learning cage for sound avoidance conditioning (Conditioning avoidance response). The animals learned to climb a pole first to escape from and then to avoid an electric shock. This method was standardized and quantified in our laboratory (see Le Poncin M., Lafitte J. C., Rapin J. R., Sound Avoidance Conditioning and a Mathematical approach to the description of acquisition performance, Math. Biosciences 59 (1982) 242–268).
(§4) For a period of five days, the animals were placed everyday under these learning conditions for a total of ten tests a day. Results are expressed as percentage of adequate responses, and the kinetics of the responses is represented by a multi-exponential maximum curve.
(§5) The curve maximum represents the learning capacities. The slope of the curve evaluates the learning speed. The area under the curve (AUC) represents a good evaluation of all conditioning parameters. The maximum value of the area under the curve is 500, if the animals show 100% adequate responses as early as Day 0. In fact, an average area under the curve is calculated per day, what amounts to a maximum value of 100. In the absolute control animals, this average area under the curve is equal to 40+/−4.

[3] = PAMPA
Text: The Parallel Artificial Membrane Permeation Assay system (PAMPA) is a simple and fast method for the prediction of gastrointestinal drug absorption. Drug permeation of biological cell layers is mainly related to passive diffusion processes. The PAMPA method measures the permeation of potential new drugs across an artificial membrane by passive diffusion and allows a classification into low, medium and high absorbers.
The artificial membrane was built up by pipetting a solution of lecithine in organic solvent on a supporting filter material in 96-well plates. For all test compounds, stock solutions of 5 mM were prepared in ethanol. They were then diluted in Tris-buffer (0.05 M, pH 7,4) to a final concentration of 500 μM. Permeation rates of all test compounds were measured in triplicate or quadruplicate. Diffusion time across the artificial membrane was 16 h. For all compounds reference values without phospholipid layer were individually determined. Concentrations in the acceptor compartments were measured by UV difference spectroscopy using a microtiter plate reader Spectramax Plus^384 from Molecular Devices. For each compound the λmax values were determined in a previous run and measurements were performed at this wavelength. The permeation rates are expressed as flux rates, which are calculated according to the following formula: flux (%)=OD (test well)/OD (control well)×100. […] Lucifer Yellow, a non-permeating dye, has been applied to each well postexperimentally and the concentration of the marker measured in a Wallac Victor^2 1420 Multilabel Counter. Wells, in which the concentration of Lucifer Yellow exceeded 1% of the amount detected in the control wells (without artificial membrane) were discarded.

hippocampal neurons = test: Gp120 model, neuronal count; format: in vivo, rat; details: CAIII layers, after ICV Gp120; 10 mg/kg/day
Procedure: Day 21. Three days later (recovery from the postoperative shock), the 30 rats were randomly divided into three group of 10 animals each: • the first group of 10 rats received an intracarotid injection of 1 ml/kg/day of normal saline for a period of 10 days. • the second group of 10 rats received 10 mg/kg/day of HCl-Gly-Phe-ProNH2 (dissolved in normal saline) for a period of 10 days. • the third group received 20 mg/kg/day of HCl-Gly-Phe-ProNH2 under the same conditions. The injections were given between 9.00 and 9.30 a.m.
Day 30. After the last learning session, the rats were sacrificed by means of decapitation, the brain was rapidly removed and frozen at […] in liquid nitrogen vapor. Brain sections were made by Cryocut at −20° C.
The sections are defrosted and stained with neutral red. After fixation, the number of neurons on one slice of the hippocampus was measured. The method is standardized by counting the neurons on the same slice. An index of the number of neurons compared to a control rat allows for a more reliable quantification than the simple counting.
The neurons are counted in the CAIII layers of the hippocampus. […] By definition, the value found in the control animals is 100 with a maximum variation of 5%.

[4] = tested on: rats previously treated by vincristine; test: Vincristine model, sound avoidance conditioning (pole climbing test); format: in vivo, rat
Procedure: The rats were slightly anesthetized by ether, an incision was made into the skin of the skull, and the skull was pierced by means of a dental burr. A metal needle was stereotaxically directed to the lateral ventricle, and then fixed by means of dental cement. Every day of the experiment, the patency of the needle was controlled.
Three days after introducing the needle (recovery from the postoperative shock) the non-anesthetized animals were injected 5 μl of normal saline with vincristine in a dose of 5 μg/kg/day. […] This administration was repeated every day for a period of five days.
Three days after the last administration of vincristine, the animals were chloralized (360 mg/kg), and, starting at the external carotid artery, a permanent floating catheter was retrogradely introduced into a common carotid artery. This catheter left again on the top of the skull, and was fixed by means of dental cement. After two days the animals had recovered from the postoperative shock. […] The steady state was reached on Day 3 after the last administration, and the model was stable for a period of several months. Once this lapse of time passed, a second type of degeneration was observed that affects the white matter, and was certainly due to apoptosis phenomena).
Five days after the last administration of vincristine, the twenty rats were randomly divided into two groups of 10 animals each: • one group of 10 rats received an intracarotid injection of 1 ml/kg/day of normal saline (controls) for a period of 10 days. • one group of 10 rats received 20 mg/kg/day of HCl-Gly-Phe-ProNH2 dissolved in normal saline for a period of 10 days. The injections were given at 9.00 a.m.
as §2, §3, §4, §5

With `NCC(=O)N[C@@H](Cc1ccccc1)C(=O)N1CCC[C@H]1C(N)=O` [HCl-Gly-Phe-ProNH2, glycyl-L-phenylalanyl-L-prolineamide] (H-Gly-Phe-Pro-NH2) the “type II glucocorticoid receptors in the hippocampus” value [1] was “**73 +/− 4 femtomols/mg of proteins”, the “type II glucocorticoid receptors in the hippocampus” value ([1]; listed as HCL-GLY-PHE-PRONH2) was “reduces the down regulation of the glucocorticoid receptors” and the “percentage of adequate responses D0” value ([2]; dexamethasone 50 mg/kg/day oral 21 days, 20 mg/kg/day 10 days, learning day D0) was 0%. The “effect on learning capacities” value ([2]; dexamethasone model) was “partially restores the learning capacities”, the “AUC (average area under the learning curve per day)” value ([2]; dexamethasone model, 20 mg/kg/day 10 days) was “**35.0 +/− 3.1” and the “percentage of adequate responses D1” value ([2]; dexamethasone model, 20 mg/kg/day 10 days, learning day D1) was 7 +/− 2%. The “percentage of adequate responses D2” value ([2]; dexamethasone model, 20 mg/kg/day 10 days, learning day D2) was “**29 +/− 5%”, the “percentage of adequate responses D3” value ([2]; dexamethasone model, 20 mg/kg/day 10 days, learning day D3) was “**57 +/− 4%” and the “percentage of adequate responses D4” value ([2]; dexamethasone model, 20 mg/kg/day 10 days, learning day D4) was “**75 +/− 3%”. The “PAMPA classification, predicted absorption after peroral application” value [3] was “weakly absorbed”, the “Counting of the hippocampal neurons (index, control animals = 100)” value (hippocampal neurons) was 46 +/− 4 and the “percentage of adequate responses D0” value ([4]; vincristine 5 μg/kg/day ICV 5 days, 20 mg/kg/day intracarotid 10 days, learning day D0) was 0%. For the same compound, the “AUC (average area under the learning curve per day)” value ([4]; vincristine model, 20 mg/kg/day 10 days) was “**24.8 +/− 3.2”, the “percentage of adequate responses D1” value ([4]; vincristine model, 20 mg/kg/day 10 days, learning day D1) was 5 +/− 2% and the “percentage of adequate responses D2” value ([4]; vincristine model, 20 mg/kg/day 10 days, learning day D2) was “**20 +/− 4%”. For the same compound, the “percentage of adequate responses D3” value ([4]; vincristine model, 20 mg/kg/day 10 days, learning day D3) was “**40 +/− 5%”, the “percentage of adequate responses D4” value ([4]; vincristine model, 20 mg/kg/day 10 days, learning day D4) was “**59 +/− 6%” and the “effect on learning parameters” value ([4]; vincristine model, intracarotid injection treatment) was “partly restores the learning parameters”.
